Reference: US20240308988A1, “Method For Controlling Diamide Resistant Pests and Compounds Therefor” (priority 2021, published 2024)

Experiments:
[1] = test system: Plutella xylostella (Diamond back moth) ryanodine receptor, containing the G4946E resistance mutation; test: In vitro calcium fluorescence assay (Fluo-8 NW, FDSS) in human embryonic kidney cells expressing the ryanodine receptor; type: cell-based; conditions: table; secondary amide analogue; EC50 (compound)/EC50 (cyantraniliprole); G4946E RyR in HEK cells
Method: Human embryonic kidney cells expressing the Plutella xylostella (Diamond back moth) ryanodine receptor, containing the G4946E resistance mutation, are loaded with Fluo-8 No Wash (NW) calcium-sensitive dye which responds by fluorescence to a change in intracellular calcium (e.g. stimulated by activation of ryanodine receptor). Test compounds are added in 10 rates to a 384-well plate containing dye-loaded cells and the fluorescent signal is measured using the Hamamatsu FDSS (Functional Drug Screening system). Dose-response curves are plotted to estimate the EC50. EC50 are normalized against an in-assay reference standard (cyantraniliprole) to address inter-assay variability. The ratio for a given compound is then obtained by the following formula:
REC50=EC50 (compound)/EC50 (cyantraniliprole).

[2] = test system: Resistant Plutella xylostella R1 (multi-resistant larvae having the G4946E resistance mutation); test: Resistant Plutella xylostella R1 (Diamond back moth) larvicide L3, feeding/contact, sprayed Chinese cabbage leaves; type: in vivo; conditions: Plutella xylostella, 96 h, read-out: control of the resistant strain of Plutella xylostella R1
Method: Resistant Plutella xylostella R1 (Diamond back moth) larvicide L3, feeding/contact Chinese cabbage plants were sprayed with diluted test solutions in an application chamber. Cut off leaves were placed into petri dishes with wetted filter paper and infested 1 day after application with 10 L3 multi-resistant Plutella xylostella larvae having the G4946E resistance mutation.
Samples were assessed 4 days after infestation for mortality and growth regulation.
Chlorantraniliprole was used as standard and a resistance factor of 146 was obtained for this strain.
Plutella xylostella resistant strain R1 originally collected from Taiwan in 2012 that carries the RyR mutation G4946E conferring resistance to diamides. The strain is reared on cabbage plants (Brassica aleracea) and selected approximately every two weeks with chlorantraniliprole.

SMILES	REC50 (Comparative compound) [1]	pest or weed control at 50 µg/mL [2]
CNC(=O)c1cc(I)cc(F)c1NC(=O)c1cc(C(F)(F)F)nn1-c1ncccc1Cl	3.99	–
CNC(=O)c1cc(Br)cc(Br)c1NC(=O)c1cc(C(F)(F)F)nn1-c1ncccc1Cl	0.98	–
CNC(=O)c1cc(Cl)cc(Cl)c1NC(=O)c1cc(OC)nn1-c1ncccc1Cl	1.20	–
CNC(=O)c1cc(C#N)cc(C)c1NC(=O)c1cc(Cn2nnc(-c3ccc(C(F)(F)F)cc3)n2)nn1-c1ncccc1Cl	2.41	–
CNC(=O)c1cc(C#N)cc(C)c1NC(=O)c1cc(C(F)(F)F)nn1-c1ncccc1Cl	3.65	–
Cc1cc(I)cc(C(=O)NC(C)C)c1NC(=O)c1cc(C(F)(F)F)nn1-c1ncccc1Cl	3.13	–
CNC(=O)c1cc(I)cc(C)c1NC(=O)c1cc(Br)nn1-c1ncccc1Cl	0.76	–
CNC(=O)c1cc(Cl)cc(Cl)c1NC(=O)c1cc(Br)nn1-c1ncc(Cl)cc1Cl	0.47	–
Cc1cc(Br)cc(C(=O)NC(C)C)c1NC(=O)c1cc(C(F)(F)F)nn1-c1ncccc1Cl	8.84	–
CNC(=O)c1cc(Br)cc(Cl)c1NC(=O)c1cc(OC)nn1-c1ncccc1Cl	1.32	–
CNC(=O)c1cc(Br)cc(C)c1NC(=O)c1cc(OC)nn1-c1ncccc1Cl	1.39	–
Cc1cc(Cl)cc(C(=O)NC(C)C)c1NC(=O)c1cc(COCc2ccc(Cl)cc2)nn1-c1ncccc1Cl	1.07	–
COc1cc(C(=O)Nc2c(C)cc(Cl)cc2C(=O)NC(C)C)n(-c2ncccc2Cl)n1	2.57	–
CNC(=O)c1cc(Cl)cc(C)c1NC(=O)c1cc(C(F)(F)F)nn1-c1ncccc1Cl	1.48	–
CNC(=O)c1cc(Cl)cc(C)c1NC(=O)c1cc(OC(F)F)nn1-c1ncccc1Cl	0.58	–
CCc1cc(C(=O)Nc2c(C)cc(Cl)cc2C(=O)NC)n(-c2ncccc2Cl)n1	1.41	–
CNC(=O)c1cc(Cl)cc(C)c1NC(=O)c1cc(C2CC2)nn1-c1ncccc1Cl	1.15	–
CNC(=O)c1cc(Cl)cc(C)c1NC(=O)c1cc(OCC(F)(F)C(F)(F)F)nn1-c1ncccc1Cl	1.85	–
CNC(=O)c1cc(Cl)cc(C)c1NC(=O)c1cc(OCC(F)(F)F)nn1-c1ncccc1Cl	1.29	–
Cc1cc(Cl)cc(C(N)=O)c1NC(=O)c1cc(Cn2nnc(C3CC3)n2)nn1-c1ncccc1Cl [Compound P2, N-(2-carbamoyl-4-chloro-6-methyl-phenyl)-2-(3-chloro-2-pyridyl)-5-[(5-cyclopropyltetrazol-2-yl)methyl]pyrazole-3-carboxamide]	–	≥ 80%
Cc1cc(Cl)cc(C(N)=O)c1NC(=O)c1cc(Cn2nnc(-c3ccc(C(F)(F)F)cc3)n2)nn1-c1ncccc1Cl [Compound P6, N-(2-carbamoyl-4-chloro-6-methyl-phenyl)-2-(3-chloro-2-pyridyl)-5-[[5-[4-(trifluoromethyl)phenyl]tetrazol-2-yl]methyl]pyrazole-3-carboxamide]	–	≥ 80%
COc1cc(C(=O)Nc2c(C)cc(I)cc2C(N)=O)n(-c2ncccc2Cl)n1 [Compound P10, N-(2-carbamoyl-4-iodo-6-methyl-phenyl)-2-(3-chloro-2-pyridyl)-5-methoxy-pyrazole-3-carboxamide]	–	≥ 80%
CNC(=O)c1cc(C#N)cc(C)c1NC(=O)c1cc(Br)nn1-c1ncccc1Cl [Cyantraniliprole, cyantraniliprole, reference compound]	1.00	–
CC(NC(=O)c1cc(Cl)cc(Br)c1NC(=O)c1cc(Br)nn1-c1ncccc1Cl)C1CC1 (stereo not drawn) [Cyclaniliprole, cyclaniliprole, reference compound]	4.70	–
